Source: PMC11292009, “Mapping protein binding sites by photoreactive fragment pharmacophores” (Communications Chemistry, 2024)

What was measured:
Format in all cases: binding
KRas^G12D = tested on: T1, KRas^G12D; test: Intact MS photoaffinity labeling screen, KRas G12D (302 nm, LCMS-TOF); conditions: for experimental hit status KRAS-G12D: 0/1 flag; for MS labeling percentage, KRas: KRas G12D, 302 nm 10 min
T1 construct: purchased GSK/GenScript
Description: (§1) Using a plate-based format with one fragment per well, each fragment was incubated with the target proteins for 15 min to allow for the formation of non-covalent interactions. […] Finally, the results were directly analyzed from the plate using intact protein mass spectrometry by observing the mass additions that correspond to successful labeling (Fig. 2c, for labeling % values see Supplementary data). The library was first characterized against three benchmark proteins like carbonic anhydrase (CA), lysozyme (Lyo), and myoglobin (Myo).
(§2) The PhP library was screened against BRD4-BD1 and KRas^G12D as follows. […] The probe plate was placed on ice. 15 μL of protein stock solution (1 μM BRD4-BD1 (GSK/GenScript) or KRas^G12D (GSK/GenScript) in PBS buffer) was dispensed into wells containing fragments. The plate was left on ice for 15 min for incubation, then irradiated at 302 nm for 10 min, and centrifuged (1000 rpm, 1 min) to remove any bubbles. […] The deconvoluted spectra were analyzed using R Studio software.

STAT5B-NTD [1] = tested on: T2, STAT5B-NTD; test: Intact MS labeling screen, STAT5B-NTD conjugated with photocatalyst Ir-G2-PEG3-COOH (450 nm); conditions: 450 nm 10 min;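 further: 0.14 µL of 100 mM DMSO fragment stock added to the conjugate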
T2 construct: His-SUMO (N, cleaved yes); made in house; host or cells: E. coli BL21 RILP
Description: For the photocatalysis experiments, 1.4 µL photocatalyst (in 1.4 mM DMSO solution, 10 eq) was pre-incubated with 1.5 µL coupling reagent (0.75 µL, 5.6 mM EDC (20 eq)+0.75 µL 4.2 mM NHS and 1.5 µL 2.1 mM (15 eq) BOP for 30 min in dark. 30 µL STAT5B-NTD (in 7 µM concentration) was added and incubated further at room temperature overnight or at 37 °C for 1 h in dark. After addition of 0.14 µL PhP (in 100 mM DMSO) the solution was further incubated in dark for 1 h. Irradiation was carried out using 450 nm LED lamp (7.6Vx0A) for 10 min at 4 °C.
(§3) During the analysis, the column temperature was maintained at a constant 60 °C, and a sample volume of 3 µL was injected for each analysis. Data acquisition was conducted in positive ion mode within the m/z 100–2000 (mass-to-charge ratio) range. For the full protocol and spectra of the hits, see Supplementary Note 2.

lysozyme (Lyo) = test: Intact protein MS photoaffinity labeling screen, lysozyme; conditions: intact protein MS after 10 min irradiation
Description: as §1

BRD4-BD1 = tested on: T3, BRD4-BD1; test: Intact MS photoaffinity labeling screen, BRD4-BD1 (302 nm, LCMS-TOF); conditions: for experimental hit status BRD4-BD1: 0/1 flag; for MS labeling percentage, BRD4: BRD4-BD1, 302 nm 10 min
T3 construct: screened the PhP library against the first bromodomain of BRD4 (BRD4-BD1); purchased GSK/GenScript
Description: as §1, §2

[2] = tested on: carbonic anhydrase II (CA); test: Intact protein MS photoaffinity labeling screen, carbonic anhydrase; conditions: intact protein MS after 10 min irradiation
Description: as §1

myoglobin (Myo) = test: Intact protein MS photoaffinity labeling screen, myoglobin; conditions: intact protein MS after 10 min irradiation
Description: as §1

STAT5B-NTD [3] = tested on: T2, STAT5B-NTD; test: Intact MS photoaffinity labeling screen, STAT5B-NTD (365 nm, UHPLC-MS); conditions: for experimental hit status STAT5B-NTD: 0/1 flag; for MS labeling percentage, STAT5B: STAT5B-NTD, 365 nm 10 min, no photocatalyst;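 on MS labeling percentage, STAT5B: 0.17 µL of 100 mM DMSO fragment stock added to the protein sample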
Description: STAT5B protein in 7 µM concentration in pH 7.4 PBS buffer was pre-incubated with 0.17 µL PhP (in 100 mM DMSO solution) for 1 h at room temperature in dark. Irradiation was carried out at 4 °C for 10 min using 365 nm UV lamp.
as §3

| MS labeling percentage, CA [2] [%] | Structure (SMILES) | experimental hit status KRAS-G12D (KRas^G12D) | MS labeling percentage, KRas (KRas^G12D) [%] | MS labeling percentage, STAT5B+photocat (STAT5B-NTD [1]) [%] | MS labeling percentage, Lyo (lysozyme (Lyo)) [%] | experimental hit status BRD4-BD1 (BRD4-BD1) | MS labeling percentage, BRD4 (BRD4-BD1) [%] | MS labeling percentage, Myo (myoglobin (Myo)) [%] | experimental hit status STAT5B-NTD (STAT5B-NTD [3]) | MS labeling percentage, STAT5B (STAT5B-NTD [3]) [%] |
| --- | --- | --- | --- | --- | --- | --- | --- | --- | --- | --- |
| 0 | CC1(CCC(=O)NC2CCCN(c3ncc[nH]c3=O)C2)N=N1 (stereo not shown) [PhP029, N1=NC1(C)CCC(=O)NC2CCCN(C2)c3ncc[nH]c3=O] | 0 | 0 | 0.3 | 0 | 0 | 0.2 | 0.1 | 0 | 0 |
| 0.7 | Cc1ccc2[nH]c(CNC(=O)CCC3(C)N=N3)nc2c1 [PhP030, c1cc(C)cc(c12)nc([nH]2)CNC(=O)CCC3(C)N=N3] | 0 | 1.4 | 0.7 | 0 | 0 | 1.2 | 0.4 | 0 | 0 |
| 0.6 | CC1(CCC(=O)NCCc2nc3ccccc3[nH]2)N=N1 [PhP031, N1=NC1(C)CCC(=O)NCCc(n2)[nH]c(c23)cccc3] | 0 | 0.4 | 0.5 | 0 | 0 | 0.8 | 0.3 | 0 | 1 |
| 0.2 | CCC(NC(=O)CCC1(C)N=N1)c1ccccc1OC (stereo not shown) [PhP032, N1=NC1(C)CCC(=O)NC(CC)c2ccccc2OC] | 0 | 0 | 1.9 | 0 | 0 | 0.3 | 0.3 | 0 | 2.9 |
| 0.5 | CC1(CCC(=O)NCc2ccc(-n3ccnc3)cc2)N=N1 [PhP033, N1=NC1(C)CCC(=O)NCc2ccc(cc2)-n3ccnc3] | 0 | 0.5 | 0.3 | 0 | 0 | 1.1 | 0.3 | 0 | 1 |
| 0.2 | COC(=O)[C@@H](Cc1c[nH]c2ccccc12)NC(=O)CCC1(C)N=N1 [PhP036, N1=NC1(C)CCC(=O)N[C@@H](C(=O)OC)Cc(c[nH]2)c(c23)cccc3] | 0 | 1 | 5.4 | 0.4 | 0 | 0.6 | 0 | 0 | 2 |

| Structure (SMILES) | MS labeling percentage, CA [2] [%] | experimental hit status KRAS-G12D (KRas^G12D) | MS labeling percentage, KRas (KRas^G12D) [%] | MS labeling percentage, STAT5B+photocat (STAT5B-NTD [1]) [%] | MS labeling percentage, Lyo (lysozyme (Lyo)) [%] | experimental hit status BRD4-BD1 (BRD4-BD1) | MS labeling percentage, BRD4 (BRD4-BD1) [%] | MS labeling percentage, Myo (myoglobin (Myo)) [%] | experimental hit status STAT5B-NTD (STAT5B-NTD [3]) | MS labeling percentage, STAT5B (STAT5B-NTD [3]) [%] |
| --- | --- | --- | --- | --- | --- | --- | --- | --- | --- | --- |
| CC1(CCC(=O)NCc2ccccc2O)N=N1 [PhP028, N1=NC1(C)CCC(=O)NCc2ccccc2O] | 0 | 0 | 0.4 | 0.3 | 0 | 0 | 57 | 0.2 | 0 | 1 |
